The source of these data is ChEMBL document CHEMBL1136588, “Exploring new non-sugar sulfated molecules as activators of antithrombin” (Bioorg Med Chem Lett, 2003).

pKd: −log10 of the molar value.

For assay [1], the target named is T1, Coagulation factor X (Homo sapiens, UniProt P00742). Description: Equilibrium dissociation constant of factor Xa inhibition.
The target in assay [2] is T1, Coagulation factor X. Description: Inhibitory activity against Plasma coagulation enzyme factor Xa; Value expressed as k Act/k UNCAT (uncatalyzed). The format is cell-free.
In assay [3] the target is T1, Coagulation factor X. Description: Second-order rate constant of factor Xa inhibition.

T1 sequence (P00742 41-179 limits assumed): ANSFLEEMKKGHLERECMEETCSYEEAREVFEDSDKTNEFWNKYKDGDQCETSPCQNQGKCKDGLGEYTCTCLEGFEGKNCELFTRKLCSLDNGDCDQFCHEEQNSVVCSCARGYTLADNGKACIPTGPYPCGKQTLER
T1 sequence (P00742 235-488 limits assumed): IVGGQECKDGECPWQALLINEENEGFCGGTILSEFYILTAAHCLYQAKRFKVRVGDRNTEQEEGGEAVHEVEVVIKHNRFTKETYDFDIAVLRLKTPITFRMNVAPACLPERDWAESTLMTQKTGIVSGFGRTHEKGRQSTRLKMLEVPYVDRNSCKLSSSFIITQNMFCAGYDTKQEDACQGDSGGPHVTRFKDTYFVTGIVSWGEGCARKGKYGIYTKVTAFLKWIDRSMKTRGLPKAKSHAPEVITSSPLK

Turning to `CO[C@@H]1O[C@@H](C(=O)O)[C@@H](O[C@H]2OC(COS(=O)(=O)O)=C[C@H](OS(=O)(=O)O)[C@H]2NS(=O)(=O)O)[C@H](O)[C@H]1OS(=O)(=O)O`, on Coagulation factor X [1], the pKd is 4.02. Further, the Acceleration on Coagulation factor X [2] came out at 19.7. Besides, the k act at Coagulation factor X [3] turned out to be 6400 M⁻¹ s⁻¹.
As to `O=S(=O)(O)Oc1cc2c(c(OS(=O)(=O)O)c1)C[C@H](OS(=O)(=O)O)[C@H](c1ccc(OS(=O)(=O)O)c(OS(=O)(=O)O)c1)O2`, on Coagulation factor X [1], the pKd was 4.97. On Coagulation factor X [2], this compound returned an Acceleration of 10.4. In addition, at Coagulation factor X [3], the k act worked out at 3380 M⁻¹ s⁻¹.
`O=c1c(OS(=O)(=O)O)c(-c2ccc(OS(=O)(=O)O)cc2OS(=O)(=O)O)oc2cc(OS(=O)(=O)O)cc(OS(=O)(=O)O)c12` had a pKd at Coagulation factor X [1] of 5.74. Also, the Acceleration at Coagulation factor X [2] came out at 21.8. The compound also registered a k act at Coagulation factor X [3] of 7100 M⁻¹ s⁻¹.
At Coagulation factor X [1], `O=S(=O)(O)Oc1cc2c(c(OS(=O)(=O)O)c1)CC(OS(=O)(=O)O)C(c1ccc(OS(=O)(=O)O)c(OS(=O)(=O)O)c1)O2` (stereo unspecified) gave a pKd of 4.58. In addition, the Acceleration on Coagulation factor X [2] worked out at 8.5. Besides, the k act on Coagulation factor X [3] was determined as 2770 M⁻¹ s⁻¹.
Taken in the same sequence, the figures for `CO[C@H]1O[C@H](COS(=O)(=O)O)[C@@H](O[C@@H]2O[C@H](C(=O)O)[C@@H](O[C@H]3O[C@H](COS(=O)(=O)O)[C@@H](O)[C@H](O)[C@H]3NS(=O)(=O)O)[C@H](O)[C@H]2O)[C@H](OS(=O)(=O)O)[C@H]1NS(=O)(=O)O` were 5.70, 320 and 45000 M⁻¹ s⁻¹.
On to `O=c1c(OS(=O)(=O)O)c(-c2ccc(OS(=O)(=O)O)c(OS(=O)(=O)O)c2)oc2cc(OS(=O)(=O)O)cc(OS(=O)(=O)O)c12`, for which the pKd at Coagulation factor X [1] was 4.77. Besides, the Acceleration at Coagulation factor X [2] came to 17.5. At Coagulation factor X [3], this compound showed a k act of 5700 M⁻¹ s⁻¹.
The compound `O=S(=O)(O)Oc1cc2c(c(OS(=O)(=O)O)c1)C[C@@H](OS(=O)(=O)O)[C@H](c1ccc(OS(=O)(=O)O)c(OS(=O)(=O)O)c1)O2` showed a pKd on Coagulation factor X [1] of 5.46. The compound also displayed an Acceleration at Coagulation factor X [2] of 20.8. Further, at Coagulation factor X [3], the k act was 6750 M⁻¹ s⁻¹.

What is called pKd is the negative decadic logarithm of the Kd, by convention in mol/L. Read a low pKd as a large Kd.
